Laboratory results: US20090221095A1, “Colorimetric Screening of DNA Binding/Intercalating Agents with Gold Nanoparticle Probes” (NORTHWESTERN UNIVERSITY, priority 2005, published 2009)

Tests used:
[1] = tested on: triplex DNA on chip surface; experiment: Chip-based scanometric detection of triplex DNA binders (silver enhancement); type: binding; settings: 0.3 M NaCl, binder 5 μM, DNA-3 150 nM
Experimental: For scanometric detection of duplex or triplex DNA binding molecules, Au nanoparticles (1 nM) and DNA binding molecules (5 μM) in 10 mM PBS buffer of varying NaCl concentrations were added to the microarray slide under hybridization wells (Nanosphere, Inc.). For detection of triplex binders, 150 nM DNA-3 was added. DNA hybridization proceeded for 30 min (for duplex DNA binders) or 1 h (for triplex DNA binders) in a humidity chamber. After hybridization, the slides were washed three times with 0.5 M NaNO3 containing 0.02% Tween 20. The arrays were dried using a benchtop spinner. Silver enhancement solution (Nanosphere, Inc.) was added for Au-NP signal amplification (1 mL total volume/array, 1.5-min development time for duplex DNA binding molecules and 3 min for triplex binding molecules). The reaction was terminated by washing the slides with NANOpure® water and spin-drying. Light-scattering images from the silver-enhanced chips were recorded using the high-resolution Verigene ID system (Nanosphere, Inc.).
Capture strands of synthetic oligonucleotides are patterned on a glass chip using a microarrayer. The DNA chip is then exposed to a solution containing three components: 1) complementary DNA (no nanoparticles), 2) DNA functionalized Au nanoparticles (DNA is non-complementary to the arrayed DNA) and 3) DNA binders, Scheme 4. The complementary solution-phase DNA, called DNA-3 in Scheme 2, hybridizes to the DNA on the chip surface and forms a duplex. The Au nanoparticle-bound DNA has the correct sequence to form a triplex with the surface bound duplex through sequence-specific Hoogsteen, or reverse Hoogsteen, base pairing. The triplex structure is relatively unstable at room temperature and will only form in the presence of triplex DNA binding molecules. The presence of the triplex DNA binding molecules increase the stability of the triplex, immobilizing the Au nanoparticles on the chip surface. The chip was then exposed to silver enhancement solution for further signal enhancement and then imaged using a Verigene ID scanner.
The assay was performed in the presence of two triplex binders, coralyn (CORA) and benzo[e]pyridoindole (BePI), seven duplex DNA binders, 4′,6-diamidino-2-phenylindole (DAPI), ellipticine (EIPT), amsacrine (AMSA), daunorubicin (DNR), anthraquinone-2-carboxylic acid (AQ2A), ethidium bromide (EB), and 9-aminoacridine (9-AA))., and one control (no DNA-3). Similar to the DNA duplex, the formation of the DNA triplex is a reversible process which is affected by both temperature and salt concentration. However, compared to the duplex, the stability of the triplex is much more sensitive to salt concentration. Therefore, to determine the relative binding strength of the triplex DNA binders, the assay was performed at varying salt concentrations, FIG. 7. At 0.3 M NaCl, both the strong (BePI) and weaker (CORA) triplex binders show signal.

[2] = tested on: triplex DNA (DNA-1, DNA-2, DNA-3); experiment: UV melting (260 nm) of unmodified triplex DNA-1, DNA-2, DNA-3 (no nanoparticles); type: binding; settings: solution-phase unmodified DNA, 1 μM each strand, 6 μM binder, 0.5 M NaCl 10 mM PBS
Experimental: To compare the results from the previous examples with more traditional screening techniques, all eight intercalators were screened, plus a control, by monitoring UV absorbance melting curves (260 nm) of unmodified DNA-1, DNA-2, and DNA-3 (1 μM each), with each intercalator (10 μM), (DNA-1; 3′ TTCTTCTTTTTT CT-5′. DNA-2: 5′-TTCTTCTTTTTTCT-3′, DNA-3: 5′-AAGAAGAAAAAA-3′). (FIG. 2B). The melting experiment performed in the presence of BePl has two melting transitions. The first Tm at 34.8° C. is associated with the denaturation of the triplex structure and the second Tm at 61.4° C. is representative of the corresponding duplex.
To determine the Tm of the duplex DNA in the presence of DNA binders, 2 μM duplex DNA and 5 μM DNA binder were combined in 0.3 M NaCl 10 mM PBS. To determine the Tm of the triplex DNA in the presence of DNA binders, 1 μM of each strand and 6 μM of each DNA binder were combined in 0.5 M NaCl 10 mM PBS. UV-vis melting curves were measured on a CARRY 500 spectrophotometer equipped with a circulating bath. The melting process was monitored by measuring the change in extinction at 260 nm. The solutions were stirred continuously with a magnetic stir bar as the solution temperature was increased at a rate of 0.5° C./min. The first derivative generated from the melting curves was used to determine the Tm.
A melting transition associated with the triple helix was found only for experiments performed in the presence of BePI (34.8° C.) and CORA (17.1° C.) where BePI is determined to be the stronger binder. This is in agreement with the results determined by the chip-based scanometric method described above.

`COc1cc2cc3c4cc(OC)c(OC)cc4cc[n+]3c(C)c2cc1OC` [CORA, coralyn] was tested, and the scanometric signal [1] was “show signal”, the “Tm 2-1” value ([2]; duplex melting transition) was 60.1 °C and the Tm3-2 ([2]; triple helix melting transition, ND read as not detected) was 17.1 °C.
